Measurements: the METLIN SMRT retention time set (Domingo-Almenara et al. 2019)

Experiment: gradient 5% acetonitrile 3 min, to 50% in 2 min, to 85% in 15 min, held 3 min, 100 µL/min
Details: column: Zorbax Extend-C18 2.1 x 50 mm; eluents: water / acetonitrile, 0.1% formic acid
Summary of the method: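 Using water and acetonitrile that each contained 0.1% formic acid, mixtures of ~100 pure standards were separated at 100 μL/min on a Zorbax Extend-C18 column (2.1 × 50 mm, 1.8 μm). The HPLC fed a quadrupole time-of-flight mass spectrometer working in positive and negative ionization mode, with dead and dwell volumes of 40 μL and 900 μL. Data were acquired over 3 months. Retention time was read from computationally picked adduct peaks after manual inspection of each.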

Row | Compound | RP-LC retention time [s]
1 | Cc1cc(C)n(CCNC(=O)c2cnccn2)n1 | 566
2 | COc1ccc(NC(=O)NCC(c2cccnc2)c2c[nH]c3ccccc23)c(OC)c1 (stereo not drawn) | 650
3 | COC1CN(c2cccc(F)c2)C12CCN(S(=O)(=O)c1cccc3cccnc13)CC2 (stereo not drawn) | 1110
4 | CCCNC(=O)C1CCN(c2ccc(SCC(=O)Nc3cc(F)ccc3C)nn2)CC1 | 667
5 | COc1cccc(NC(=O)NC2CCN(c3ccc(F)c(C)c3)C2=O)c1 (stereo not drawn) | 818
6 | Cc1cccc(N2CCN(C(=O)CN3CCN(Cc4ccccc4F)C3=O)CC2)c1 | 864
7 | Cc1ccc(NC(=O)CN2C(=O)NC3(CCCCC3)C2=O)cc1F | 798
8 | Cc1cc(OCC(O)CN2CCN(C)CC2)ccc1Cl (stereo not drawn) | 558
9 | O=C(CCc1ccccc1)NCCN1CCN(c2ccc(Cl)cc2)CC1 | 619
10 | O=C(Cc1csc2nc(-c3ccccc3)cn12)N1CCCc2ccccc21 | 873
11 | COc1ccccc1CC(=O)Nc1cccn2cnnc12 | 674
12 | Cc1nnc(-c2ccc(S(=O)(=O)N3CCOCC3)o2)o1 | 664
13 | Cc1ccc(-n2cc(C(=O)O)nn2)cc1F | 684
14 | NC(=O)c1cccn1Cc1ccc(Cl)cc1 | 778
15 | Cc1ccc(Oc2nccnc2N2CCC(C(=O)NCCCN3CCOCC3)CC2)cc1 | 648
16 | COc1ccc(C2(C(=O)N3C[C@@H](CO)[C@H](c4nc(C)no4)C3)CC2)cc1 | 665
17 | COc1ccccc1NC(=O)c1cn2c(n1)CCCC2 | 622
18 | CCc1ccc(-n2c(-c3ccc(Cl)cc3)cn3c4c(=O)n(C)c(=O)n(C)c4nc23)cc1 | 1150
19 | O=C(c1csc(S(=O)(=O)N2CCC(C(=O)N3CCCC3)CC2)c1)N1CCCCCC1 | 769
20 | COC(=O)C1=C(CN2CCN(C)CC2)NC(=O)NC1c1ccc(OC)c(OC)c1 (stereo not drawn) | 567
21 | O=C1CC2OCC=C3CN4CC[C@]56c7ccccc7N1C5[C@H]2[C@H]3C[C@H]46 (stereo partly drawn) | 583
22 | COc1ccc(S(=O)(=O)N2CCCC(C(=O)NCCC3=CCCCC3)C2)cc1C (stereo not drawn) | 1070
23 | COc1ccc(Cl)cc1NC(=O)c1cccn1-c1cccnc1 | 887

Row | Compound | RP-LC retention time [s]
24 | CCOc1ccc(C2c3[nH]c4ccccc4c3CCN2C(=O)C2CC2)cc1 (stereo not drawn) | 1090
25 | CCn1c(SC)nnc1-c1nn(C)c2c1CN(C(=O)c1ccc(F)cc1)CC2 | 763
26 | Nc1nc(-c2ccccc2)nn1C(=O)C1CC1 | 800
27 | Cc1cccc(-c2noc(Cn3c(=O)n(-c4cccc(F)c4)c(=O)c4sccc43)n2)c1 | 1030
28 | O=C(NCCc1cccs1)C1CCN(C(=O)c2ncn3c2COC(c2ccc(Cl)cc2)C3)CC1 (stereo not drawn) | 808
29 | O=C(CSc1nccn1-c1ccc(Cl)cc1)NCc1ccco1 | 655
30 | Cc1ccc(S(=O)(=O)N2CCC3(CC2)NCCN=C3NCc2ccccc2)c(C)c1 | 739
31 | CCOC(=O)N1CCC(NC(=O)C(=O)NCc2cccs2)CC1 | 692
32 | CN1CCN(C(=O)c2noc3c2CC(C(C)(C)C)CC3)CC1 (stereo not drawn) | 582
33 | Cc1ccc(F)c(NS(=O)(=O)c2cn(CC(C)C)c3ncccc23)c1 | 932
34 | Cn1nc2n(c1=O)CCN(S(=O)(=O)c1ccc(C#N)cc1)CC2 | 655
35 | CCCn1cc(C(=O)NCc2ccc3c(c2)OCO3)c2cccnc21 | 758
36 | C[C@@H]1CN(C(=O)NC2CCCC2)C[C@H]1c1nc(-c2ccncc2)no1 | 671
37 | CCc1cc(=O)n(CC(=O)N2CCc3ccccc32)c(N2CCOCC2)n1 | 734
38 | Cc1cc(C)cc(-c2nc(C3CC(=O)N(c4ccc(F)cc4)C3)no2)c1 (stereo not drawn) | 1060
39 | Cc1ccccc1CNC(=O)c1cc2n(n1)CCCC2 | 811
40 | CCn1c(=O)c(N2CCN(C(=O)Nc3ccc(Br)cc3F)CC2)nc2cccnc21 | 1000
41 | COc1cc(C2C(=O)N(C3CCCC3)CC(=O)N2Cc2ccco2)ccc1OC(C)C (stereo not drawn) | 915
42 | O=C(Nc1nc2ccccc2s1)C1CCN(C(=O)c2ccccc2Cl)CC1 | 829
43 | Cn1nc(-c2nnc(-c3ccccc3F)o2)c2c1CCN(S(=O)(=O)c1cc(F)ccc1F)C2 | 928
44 | Cn1c(C2CCN(C(=O)Nc3ccc(F)cc3)CC2)cc(=O)n2nccc12 | 615
45 | CCC(C)NC(=O)C1(c2ccc(NS(=O)(=O)CC)cc2)CCCCC1 (stereo not drawn) | 887
46 | COc1cc(OC)cc(C(=O)N2CCC3(C2)C(=O)N(C)c2ccc(OC)cc23)c1 (stereo not drawn) | 798

Row | Compound | RP-LC retention time [s]
47 | O=c1n(CC2CC2)nc2n1CCN(Cc1ccncc1)C2 | 511
48 | Cc1ccc(NC(=O)C(=O)NCC2CCN(S(C)(=O)=O)CC2)cc1N1CCCC1=O | 627
49 | CCOC(=O)c1cccc(N2C=C(C#N)S(=O)(=O)c3ccc(C)cc32)c1 | 969
50 | Cc1noc(-c2nn(C)c3c2CN(C(=O)Nc2ccc(Cl)cc2)CC3)n1 | 790
51 | CCc1ccc(NC(=O)N2CCc3nc(-c4ccc(OC)cc4)ncc3C2)cc1 | 995
52 | CCOc1cc(S(=O)(=O)Nc2cccc3cn[nH]c23)ccc1Br | 804
53 | COc1cc([C@@H]2c3cc4c(cc3[C@H](O)[C@@H](CO)[C@@H]2C(=O)N2CCN(c3ccccc3)CC2)OCO4)cc(OC)c1OC | 749
54 | Cc1cc(NCc2ccccn2)n2ncc(-c3ccccc3)c2n1 | 706
55 | O=C(Cn1c(=O)c(=O)n(Cc2ccccc2)c2ncccc21)NCc1ccco1 | 786
56 | CCc1nc(-c2csc(S(=O)(=O)N3CCC(C(=O)N4CCCCCC4)CC3)c2)no1 | 955
57 | COc1ccc(-c2nnc(-c3ccc(C)c(S(=O)(=O)NCc4cccs4)c3)o2)cc1OC | 917
58 | O=C(Cn1cccc(-c2nc(-c3ccc(Br)cc3)no2)c1=O)Nc1ccc(F)cc1 | 980
59 | O=C(CC1CCCC1)NC(c1ccccc1)c1nnc(N2CCCCC2)o1 (stereo not drawn) | 881
60 | CC(C)n1c(N2CCCN(C(=O)c3ccco3)CC2)cc(=O)n(C(C)C)c1=O | 756
61 | CCOc1ccccc1CNC(=O)c1c(C)sc2ccn(C)c(=O)c12 | 823
62 | CC1CCN(C(=O)CCC(=O)N2CCCN(c3nc4cccnc4s3)CC2)CC1 | 698
63 | O=C(Cc1csc(NC(=O)c2cnccn2)n1)NCCc1c[nH]c2ccccc12 | 654
64 | Cc1oc(CNC(=O)Nc2ccc(Cl)cc2F)nc1C(=O)N1CCCC1 | 723
65 | COc1ccc(C(=O)N2CCCC2c2nc(-c3cccc(C)c3)no2)cn1 (stereo not drawn) | 947
66 | COc1ccc(OC)c(NC(=O)c2nc(C)oc2C)c1 | 935
67 | CC(C)N1C(=O)c2cccnc2Sc2cc(NC(=O)C3CCCCC3)ccc21 | 920
68 | Cc1nc(NC2=NCN(Cc3cccnc3)CN2)nc2c(C)cccc12 | 592
